In US20260159536A1, “AKR1C3-ACTIVATED DNA ALKYLATING AGENT, AND MEDICAL APPLICATION THEREOF” (ASCENTAWITS PHARMACEUTICALS, LTD., priority 2021, published 2026):

Assay: in vitro
Conditions: for half-life at 5 µM: hepatocyte cytosol
Method: (1) Compound A for test, progesterone positive control, and 100 mM stock solutions of AST-3021 inhibitor were prepared and stored in the freezer (−10° C. to −30° C.).
1) Negative control group: at different time points (0 and 60 min), 30 μL/well of hepatocyte cytosol suspension containing 7.5 μM of sample for test was distributed in a 96-well plate. Three replicate wells were prepared in parallel.
2) Positive control group: at different time points (0, 5, 15, 30, 45 and 60 min), 30 μL/well of hepatocyte cytosol suspension containing 7.5 μM of the positive control was distributed in a 96-well plate. Three replicate wells were prepared in parallel.
3) Normal reaction group: at different time points (0, 5, 15, 30, 45 and 60 min), 30 μL/well of hepatocyte cytosol suspension containing 7.5 μM of sample for test was distributed in a 96-well plate. Three replicate wells were prepared in parallel.
4) Inhibition reaction group: at different time points (0, 5, 15, 30, 45 and 60 min), 30 μL/well of hepatocyte cytosol suspension containing […] of sample for test and 4.5 μM of the inhibitor was distributed in a 96-well plate. Three replicate wells were prepared in parallel.
6) 0 min samples: after 150 μL/well of acetonitrile containing the internal standard was added, then 15 μL/well of pre-heated NADPH working solution was added to the samples of normal reaction group, inhibition reaction group and positive control group, and 15 μL/well of pre-heated potassium phosphate buffer was added to the samples of negative control group.
7) Other samples (5, 15, 30, 45 and 60 min): for normal reaction group, inhibition reaction group and positive control group, 15 μL/well of pre-heated NADPH working solution was added to start the reaction; for negative control group, 15 μL/well of pre-heated potassium phosphate buffer was added. The reaction plates were then continued to incubate in a 37° C. water bath and the reactions were stopped by the addition of 150 μL/well of stop solution at the corresponding time points (5, 15, 30, 45 and 60 min).
The concentration of analyte in each sample was expressed as a peak area ratio (peak area analyte/peak areainternal standard), then the peak area ratio at 0 min was used as a reference to calculate the % Remaining at each time point of the incubation, and the ln logarithmic value of the % Remaining was linearly fitted to the incubation time and the half-life was calculated according to the following formula.
In the absence of AST-3021, 5 μM of progesterone was co-incubated with 2 mM of NADPH and 1 mg/mL of hepatocyte cytosol for 0-60 min as a positive control.

## O=[N+]([O-])c1ccc(C(OP(=O)(N2CC2)N2CC2)C(F)(F)F)cc1Oc1ccc(-c2ccc(F)cc2)c(F)c1 (racemic) [Compound A]
CD-1, mouse, Metabolic parameter t1/2, mouse, 2 mM NADPH, no AST-3021 (normal reaction / positive control group), 5 μM
  half-life at 5 µM: 8.52 h
CD-1, mouse, Metabolic parameter t1/2, mouse, negative control group (no NADPH, no AST-3021), 5 μM
  half-life at 5 µM: 3.72 h
CD-1, mouse, half-life, mouse, with NADPH and AST-3021
  half-life at 5 µM: 2.34 h
CD-1, mouse, half-life, mouse, with NADPH, no AST-3021
  half-life at 5 µM: 8.52 h
CD-1, mouse, with AST-3021 (AKR1C3 inhibitor), 3 μM, Metabolic parameter t1/2, mouse, 2 mM NADPH + 3 μM AST-3021 (inhibition reaction group), 5 μM
  half-life at 5 µM: 2.81 h
SD, rat, Metabolic parameter t1/2, rat, 2 mM NADPH, no AST-3021 (normal reaction / positive control group), 5 μM
  half-life at 5 µM: 2.18 h
SD, rat, Metabolic parameter t1/2, rat, negative control group (no NADPH, no AST-3021), 5 μM
  half-life at 5 µM: 1.83 h
SD, rat, with AST-3021 (AKR1C3 inhibitor), 3 μM, Metabolic parameter t1/2, rat, 2 mM NADPH + 3 μM AST-3021 (inhibition reaction group), 5 μM
  half-life at 5 µM: 1.69 h
Sprague-Dawley (SD), rat, half-life, with NADPH and AST-3021
  half-life at 5 µM: 1.69 h
Sprague-Dawley (SD), rat, half-life, with NADPH, no AST-3021
  half-life at 5 µM: 2.18 h
Cynomolgus (printed as 'machins'), monkey, Metabolic parameter t1/2, monkey, 2 mM NADPH, no AST-3021 (normal reaction / positive control group), 5 μM
  half-life at 5 µM: 2.53 h
Cynomolgus (printed as 'machins'), monkey, Metabolic parameter t1/2, monkey, negative control group (no NADPH, no AST-3021), 5 μM
  half-life at 5 µM: 2.87 h
human, 60 min, no NADPH, no AST-3021
  average % Remaining: 38.96%
human, 60 min, with NADPH, no AST-3021
  average % Remaining: 43.34%
human, Metabolic parameter t1/2, human, 2 mM NADPH, no AST-3021 (normal reaction / positive control group), 5 μM
  half-life at 5 µM: 0.831 h
human, Metabolic parameter t1/2, human, negative control group (no NADPH, no AST-3021), 5 μM
  half-life at 5 µM: 0.735 h
human, half-life, with NADPH and AST-3021
  half-life at 5 µM: 1.08 h
human, half-life, with NADPH, no AST-3021
  half-life at 5 µM: 0.831 h
human, with AST-3021 (AKR1C3 inhibitor), 3 µM, Metabolic parameter t1/2, human, 2 mM NADPH + 3 μM AST-3021 (inhibition reaction group), 5 μM
  half-life at 5 µM: 1.08 h
human, with NADPH and AST-3021
  % Remaining: 53.65%
human, 2 mM NADPH + 3 μM AST-3021 (inhibition reaction group), 5 μM
  Metabolic parameter k: 0.0107
human, 2 mM NADPH + 3 μM AST-3021 (inhibition reaction group), 5 μM, 0 min
  average % Remaining: 100.00%
human, 2 mM NADPH + 3 μM AST-3021 (inhibition reaction group), 5 μM, 5 min
  average % Remaining: 83.74%
human, 2 mM NADPH + 3 μM AST-3021 (inhibition reaction group), 5 μM, 15 min
  average % Remaining: 78.58%
human, 2 mM NADPH + 3 μM AST-3021 (inhibition reaction group), 5 μM, 30 min
  average % Remaining: 67.01%
human, 2 mM NADPH + 3 μM AST-3021 (inhibition reaction group), 5 μM, 45 min
  average % Remaining: 66.39%
human, 2 mM NADPH + 3 μM AST-3021 (inhibition reaction group), 5 μM, 60 min
  average % Remaining: 53.65%
human, 2 mM NADPH, no AST-3021 (normal reaction / positive control group), 5 μM
  Metabolic parameter k: 0.0139
human, 2 mM NADPH, no AST-3021 (normal reaction / positive control group), 5 μM, 0 min
  average % Remaining: 100.00%
human, 2 mM NADPH, no AST-3021 (normal reaction / positive control group), 5 μM, 5 min
  average % Remaining: 88.27%
human, 2 mM NADPH, no AST-3021 (normal reaction / positive control group), 5 μM, 15 min
  average % Remaining: 79.04%
human, 2 mM NADPH, no AST-3021 (normal reaction / positive control group), 5 μM, 30 min
  average % Remaining: 70.02%
human, 2 mM NADPH, no AST-3021 (normal reaction / positive control group), 5 μM, 45 min
  average % Remaining: 52.35%
human, 2 mM NADPH, no AST-3021 (normal reaction / positive control group), 5 μM, 60 min
  average % Remaining: 43.34%
human, negative control group (no NADPH, no AST-3021), 5 μM
  Metabolic parameter k: 0.0157
human, negative control group (no NADPH, no AST-3021), 5 μM, 0 min
  average % Remaining: 100.00%
human, negative control group (no NADPH, no AST-3021), 5 μM, 60 min
  average % Remaining: 38.96%
Machin (cynomolgus), monkey, with AST-3021 (AKR1C3 inhibitor), 3 µM, Metabolic parameter t1/2, monkey, 2 mM NADPH + 3 μM AST-3021 (inhibition reaction group), 5 μM
  half-life at 5 µM: 2.59 h
machins, monkey, half-life, with NADPH and AST-3021
  half-life at 5 µM: 2.59 h
machins, monkey, half-life, with NADPH, no AST-3021
  half-life at 5 µM: 2.53 h
monkey, 60 min, no NADPH, no AST-3021
  average % Remaining: 78.57%
monkey, 60 min, with NADPH, no AST-3021
  average % Remaining: 73.28%
monkey, with NADPH and AST-3021
  % Remaining: 69.52%
monkey, 2 mM NADPH + 3 μM AST-3021 (inhibition reaction group), 5 μM
  Metabolic parameter k: 0.0045
monkey, 2 mM NADPH + 3 μM AST-3021 (inhibition reaction group), 5 μM, 0 min
  average % Remaining: 100.00%
monkey, 2 mM NADPH + 3 μM AST-3021 (inhibition reaction group), 5 μM, 5 min
  average % Remaining: 96.83%
monkey, 2 mM NADPH + 3 μM AST-3021 (inhibition reaction group), 5 μM, 15 min
  average % Remaining: 101.19%
monkey, 2 mM NADPH + 3 μM AST-3021 (inhibition reaction group), 5 μM, 30 min
  average % Remaining: 90.97%
monkey, 2 mM NADPH + 3 μM AST-3021 (inhibition reaction group), 5 μM, 45 min
  average % Remaining: 88.36%
monkey, 2 mM NADPH + 3 μM AST-3021 (inhibition reaction group), 5 μM, 60 min
  average % Remaining: 69.52%
